The values below come from publication PMC9508239 (Nature Communications, 2022).

Experiment [1] concerns IR. The experiment can be described thus: Functional IR levels in liver after treatment (Fig. S10e,f). Type of experiment: in vivo, mouse. On the procedure:
(§1) The cells were incubated with the lysis buffer B [50 mM Hepes pH 7.4, 150 mM NaCl, 10% Glycerol, 1% Triton X-100, 1 mM EDTA, 100 mM sodium fluoride, 2 mM sodium orthovanadate, 20 mM sodium pyrophosphate, 0.5 mM dithiothreitol (DTT), 2 mM phenylmethylsulfonyl fluoride (PMSF)] supplemented with cOmplete Protease Inhibitor Cocktail (Roche), PhosSTOP (Sigma), and 25 U/ml turbo nuclease (Accelagen) on ice for 1 h. After centrifuging at 20,817×g at 4 °C for 10 min, the concentrations of cell lysate were measured using Micro BCA Protein Assay Kit (Thermo Scientific). About 50–60 μg total proteins were analyzed by SDS-PAGE and quantitative Western blotting. […] For quantitative western blots, anti-rabbit immunoglobulin G (IgG) (H + L) (WB, 1:5000; Dylight 800 conjugates, Cat. #5151) and anti-mouse IgG (H + L) (WB, 1:5000; Dylight 680 conjugates, Cat. #5470) (Cell Signaling) were used as secondary antibodies. […]
For the oral glucose tolerance test, mice were fasted for 6 h and their blood glucose levels (T = 0) were measured with tail bleeding using a glucometer (AlphaTRAK). […] Blood glucose levels were measured at the indicated time points after glucose administration. […]

Another experiment has as its system IR D496K. Put plainly: Auto-phosphorylation of IR in 293FT cells expressing IR D496K. Type of experiment: cell-based, human. How it is done: (§2) For the activation assay, the short isoform of human IR in pCS2-MYC was used as described previously[20],[49]. Plasmid transfections into 293FT cells were performed with Lipofectamin^TM 2000 (Invitrogen).
as §1

The subject of the next experiment is SREBP1. The experiment can be described thus: Nuclear translocation of SREBP1 in primary mouse hepatocytes. Type of experiment: cell-based. To be noted: 100 nM, 30 min. How it is done:
Primary hepatocytes were isolated from 2-month-old male mice with a standard two-step collagenase perfusion procedure as described earlier with some modifications[24],[48],[49]. […] After 1–2 s upon the appearance of white spots in the liver, we cut the portal vein with scissors to wash out blood, and then the liver was perfused with 30 ml of Liver Digest Medium (Thermo Scientific, Cat. #17703034). The dissected liver was gently washed with low-glucose DMEM and transferred to a sterile culture dish containing 15 ml Liver Digest Medium. The isolated liver cells were filtered through the 70 μm cell strainer into a 50 ml tube. After centrifuging at 50×g for 5 min at 4 °C, cells were washed with cold low-glucose DMEM three times. […] After 2 h, the medium was changed to serum-free low-glucose DMEM.
Primary hepatocytes were described in the primary hepatocyte isolation section. […] Cells were fixed with 4% paraformaldehyde for 10 min. The fixed cells were incubated with PBS for 30 min and 3% BSA in PBS with 0.1% Triton X-100 (0.1% PBST) for 1 h, and then treated with anti-SREBP1 antibodies (20B12, Millipore, Cat. #MABS1987, 1:200) in 3% BSA in 0.1% PBST at 4 °C overnight. After being washed, cells were incubated with secondary antibodies (Alexa Fluor 488 goat anti-rabbit, Invitrogen, Cat. #A11008, 1:200) for 1 h. […]

Experiment [2] concerns IR. Put plainly: Insulin signaling in vivo, white adipose tissue (WAT). To be noted: mouse epididymal WAT, vs vehicle. How it is done:
as §1
Two to three months old male mice were fasted overnight. […] After centrifuging at 20,817×g at 4 °C for 30 min, the concentrations of cell lysate were measured using Micro BCA Protein Assay Kit (Thermo Scientific). The lysates were then analyzed by quantitative western blotting.

The test system of a further experiment is endogenous murine IR. Put plainly: IR signaling (pY IR, pAKT, pERK) in GFP MEFs, tamoxifen-inducible IR knockout (Fig. S8). Type of experiment: cell-based, mouse. To be noted: tamoxifen treatment, high concentration of insulin. How it is done: IR^F/F mice (Jackson #006955[71]) were crossed with CAG-CRE/ERT mice (Jackson #004682) to generate IR^F/F; CRE-ERT mice. The IR^F/F; CRE-ERT mice were backcrossed nine generations to C57BL/6 (Jackson #000664). The MEFs from IR^F/F; CRE-ERT mice were isolated as described earlier with some modifications. E14.5 embryos were minced with sterile scalpels and incubated with 0.25% trypsin-EDTA for 10 min at 37 °C and a 5% CO2 incubator. Fresh 0.25% trypsin-EDTA was added. After 10 min incubation, cells were put into fresh DMEM containing supplemented 10% (v/v) FBS, 2 mM L-glutamine, 55 μM β-mercaptoethanol, and 1% penicillin/streptomycin, and then centrifuged at 290×g for 5 min. […]
The cells were incubated with the lysis buffer B [50 mM Hepes pH 7.4, 150 mM NaCl, 10% Glycerol, 1% Triton X-100, 1 mM EDTA, 100 mM sodium fluoride, 2 mM sodium orthovanadate, 20 mM sodium pyrophosphate, 0.5 mM dithiothreitol (DTT), 2 mM phenylmethylsulfonyl fluoride (PMSF)] supplemented with cOmplete Protease Inhibitor Cocktail (Roche), PhosSTOP (Sigma), and 25 U/ml turbo nuclease (Accelagen) on ice for 1 h. After centrifuging at 20,817×g at 4 °C for 10 min, the concentrations of cell lysate were measured using Micro BCA Protein Assay Kit (Thermo Scientific). About 50–60 μg total proteins were analyzed by SDS-PAGE and quantitative Western blotting. […]

Another experiment relates to IR K484E/L552A. The experiment can be described thus: Auto-phosphorylation of IR in 293FT cells expressing IR K484E/L552A. To be noted: 10 nM, 10 min. Type of experiment: cell-based, human. On the procedure:
as §2, §1

Consider “insulin: native IR ligand used as comparator; Humulin in the in vivo tests”, for which the IR downregulation entry with IR [1] (50U/kg, i.p., 3 consecutive days) is given as “not significantly downregulated”; in the experiment on IR [1] (one hour after insulin 0.1U/kg or S597 0.15U/kg), “not significantly downregulated”. Moreover, the IR activation result in the experiment with IR D496K is reported as “reduced insulin-dependent IR activation”; in the experiment on IR K484E/L552A, “could not be activated efficiently”. Further, in the experiment on SREBP1, the “nuclear translocation of SREBP1” value is “stimulated to the same level by insulin and S597”. Further, in the experiment with IR [2], the “pAKT, WAT” value is recorded as “significantly increased pAKT levels”. For the same substance, the “pERK, WAT” value with IR [2] is “neither insulin nor S597 had a statistically significant effect on pERK levels”. Also, the “downstream signaling through residual IR” value in the experiment on endogenous murine IR is listed as “could activate downstream signaling”.
